This assay addresses T1, human Mnk2a (Homo sapiens, UniProt Q9HBH9).
T1 construct: made in house; host or cells: E. coli BL21 (vector pGEX-4T1)
Description: Mnk2a in vitro kinase assay (indirect fluorescence polarization). It counts as biochemical. The settings on record: GST-Mnk2a pre-activated with ERK2, 20 μM ATP, 30 μM substrate peptide; read-out: MNK2 IC50. On the procedure: Inhibitory potency of compounds against Mnk1, Mnk2a and other kinases was assessed with assays based on a format known to those skilled in the art as the indirect (competitive) fluorescence polarization. The assay detection system comprises a small fluorophore-labeled phospho-peptide (termed ligand) bound to a phospho-specific antibody. The product generated by the kinase reaction competes with the ligand for antibody binding. Based on the larger molecular volume of the bound ligand, which results in a lower rotation rate in solution, its emitted light has a higher degree of polarization than the one from the free ligand.
As a source of enzyme, human Mnk1 and human Mnk2a were expressed as GST fusion proteins in E. coli, purified to >80% homogeneity by glutathione affinity chromatography and activated in vitro with pre-activated ERK2. In brief, the open reading frames of human Mnk1 and Mnk2a were amplified from cDNA using the forward/reverse primer pairs
(utilized restriction sites underlined), respectively, and cloned into the BamHI and SalI sites of the vector pGEX-4T1 (Amersham, Sweden, cat. no. 27-4580-01). These constructs allow prokaryotic expression of Mnk1 or Mnk2a as fusion protein with a N-terminal glutathione S-transferase (GST) tag, referred to as GST-Mnk1 or GST-Mnk2a. The following expression and purification procedure was identical for GST-Mnk1 and GST-Mnk2a, referring in general to GST-Mnk, when not distinguishing between the two isoforms. Expression of GST-Mnk was in E. coli BL21 (Merck Biosciences, Germany, cat. no. 69449). Cells were grown in LB-Bouillon (Merck, Germany, cat. no. 1.10285) supplemented with 100 μg/ml ampicillin (Sigma, Germany, cat. no. A9518) at 37° C. When the culture had reached a density corresponding to an A600 of 0.8, an equal volume of ice cold LB/ampicillin was added, the culture transferred to 25° C. and induced for 4 h with 1 mM isopropyl thiogalactoside (IPTG, Roth, Germany, cat. no. 2316.4). Cells harvested by centrifugation were resuspended in 10 ml lysis buffer (50 mM tris(hydroxymethyl)aminomethane hydrochloride (Tris/HCl, Sigma, Germany, cat. no. T5941) pH 7.5, 300 mM sodium chloride (NaCl, Sigma, Germany, cat. no. S7653), 5% (w/v) glycerol (Sigma, Germany, cat. no. G5516), 3 mM DTT dithiotreitol (DTT, Sigma, Germany, cat. no. D9779)) per gram wet weight cell pellet. Lysates were prepared by disruption of cells with a sonifier and subsequent clearing by centrifugation at 38000 g for 45 min at 4° C.
The lysate was applied to a GSTPrep FF 16/10 column (Amersham, Sweden, cat. no. 17-5234-01) equilibrated with lysis buffer. Removal of unbound material was with 3 column volumes (CV) lysis buffer. Elution was with 2 CV of elution buffer (50 mM Tris/HCl pH 7.5, 300 mM NaCl, 5% (w/v) glycerol, 20 mM glutathione (Sigma, Germany, cat. no. G4251)). Peak fractions were pooled and the protein transferred into storage buffer (50 mM Tris/HCl pH 7.5, 200 mM NaCl, 0.1 mM ethylene glycol-bis(2-aminoethylether)-N,N,N′,N′-tetraacetic acid (EGTA, Aldrich, Germany, cat. no. 23, 453-2), 1 mM DTT, 10% (w/v) glycerol, 0.5 M sucrose (Sigma, Germany, cat. no. SO389) by gel filtration on a PD10 desalting column (Amersham, Sweden, cat. no. 17-0851-01). Aliquots were shock frozen in liquid nitrogen and stored at −80° C.
Activation of Mnk1 and Mnk2a was at a concentration of 2.5 μM of either purified GST-Mnk1 or GST-Mnk2a by incubation with 150 nM pre-activated NHis-ERK2 (see ERK2 assay for preparation) and 50 μM adenosine triphosphate (ATP, Sigma, cat. no. A2699) in a buffer comprising 20 mM N-(2-hydroxyethyl)piperazine-N′-(2-ethanesulfonic acid) (HEPES, Fluka, Germany, cat. no 54459)/potassium hydroxide (KOH, Roth, Germany, cat. no 6751.1) pH 7.4, 10 mM magnesium chloride (MgCl2, Sigma, Germany, cat. no. M2670), 0.25 mM DTT, 0.05% (w/v) polyoxyethylene 20 stearylether (Brij 78, Sigma, Germany, cat. no. P4019) (HMDB buffer) for 45 min at 30° C. […]
On the technique in general: Polarisation of emitted light reports the rotation of a fluorescent probe.

pIC50: −log10 of the molar value. Counter-ions that a name gives are not always drawn.

T1 sequence (Q9HBH9 whole entry): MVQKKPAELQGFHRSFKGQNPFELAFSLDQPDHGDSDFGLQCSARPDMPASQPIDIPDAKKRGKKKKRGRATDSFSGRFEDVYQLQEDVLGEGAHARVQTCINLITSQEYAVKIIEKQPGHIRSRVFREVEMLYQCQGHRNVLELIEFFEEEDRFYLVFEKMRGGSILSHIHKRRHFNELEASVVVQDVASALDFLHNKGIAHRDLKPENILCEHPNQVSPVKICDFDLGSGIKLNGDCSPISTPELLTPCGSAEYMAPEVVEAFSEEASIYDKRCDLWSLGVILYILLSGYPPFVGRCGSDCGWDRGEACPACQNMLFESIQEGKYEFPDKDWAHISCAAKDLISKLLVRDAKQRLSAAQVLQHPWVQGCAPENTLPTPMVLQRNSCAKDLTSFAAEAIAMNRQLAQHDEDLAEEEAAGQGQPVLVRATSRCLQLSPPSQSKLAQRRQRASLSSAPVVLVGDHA

One may read the pIC50 as the IC50 on a negative log10 scale, so that one unit is a factor of ten. As for `Cc1c(C(=O)NCC2CN(C)CCO2)sc2ncnc(Nc3ccc(F)cc3O[C@@H]3CCOC3)c12` (stereo partly shown) [Example 105], the pIC50 is 7.70.

`Cc1c(C(=O)N[C@H]2CC[C@@H](O)CC2)sc2ncnc(Nc3ccc(F)cc3OC3CCOCC3)c12` [Example 191]: the pIC50 is 7.33.

Take `Cc1c(C(=O)NCC2CCCO2)sc2ncnc(Nc3ccc(F)cc3OC3CCCNC3)c12` (stereo not shown) [Example 25]: the pIC50 is 7.09.

As to `Cc1c(C(=O)NCC#CCN)sc2ncnc(Nc3ccc(F)cc3OC3CCOCC3)c12` [Example 134], the pIC50 is 7.80.

On to `Cc1c(C(=O)NCCCN2CCCC2)sc2ncnc(Nc3ccc(F)cc3O[C@@H]3CCCOC3)c12` [Example 258, 4-{4-Fluoro-2-[(R)-(tetrahydro-pyran-3-yl)oxy]-phenylamino}-5-methyl-thieno[2,3-d]pyrimidine-6-carboxylic acid (3-pyrrolidin-1-yl-propyl)-amide], for which the pIC50 was 7.70.

Regarding `Cc1c(C(=O)NCCNS(C)(=O)=O)sc2ncnc(Nc3ccc(F)cc3OC3CCOCC3)c12` [Example 189], the pIC50 was 7.60.

Consider `Cc1c(C(=O)NCCO)sc2ncnc(Nc3ccc(F)cc3O[C@@H]3CCCN(S(C)(=O)=O)C3)c12` [Example 86], for which the pIC50 was 8.22.

In the case of `Cc1c(C(=O)NCCCO)sc2ncnc(Nc3ccc(F)cc3O[C@H]3CCCNC3)c12` [Example 16], the pIC50 is 7.52.

With `Cc1c(C(=O)NCCCN(C)C)sc2ncnc(Nc3ccc(F)cc3O[C@H]3CCCOC3)c12` [Example 87, 4-{4-Fluoro-2-[(S)-(tetrahydro-pyran-3-yl)oxy]-phenylamino}-5-methyl-thieno[2,3-d]pyrimidine-6-carboxylic acid (3-dimethylamino-propyl)-amide], the negative logarithm of the IC50 (pIC50) is 7.92.

Take `Cc1c(C(=O)NCc2ccccc2)sc2ncnc(Nc3ccc(F)cc3OC3CCCNC3)c12` (stereo not shown) [Example 27]: the pIC50 is 7.32.

Turning to `Cc1c(C(=O)NCCC#N)sc2ncnc(Nc3ccc(F)cc3OC3CCOCC3)c12` [Example 228], the pIC50 is 7.46.

`Cc1c(C(=O)NCC2CN(C)CCO2)sc2ncnc(Nc3ccc(F)cc3O[C@H]3CCOC3)c12` (stereo partly shown) [Example 110]: the pIC50 was 7.68.

Take `Cc1c(C(N)=O)sc2ncnc(Nc3ccc(F)cc3O[C@H]3CCCN(CC(=O)N(C)C)C3)c12` [Example 2]: the negative-log IC50 (pIC50) was 6.33.

For the compound `Cc1c(C(=O)NCCS(=O)(=O)N(C)C)sc2ncnc(Nc3ccc(F)cc3OC3CCCNC3)c12` (stereo not shown) [Example 47], the pIC50 is 7.29.

`Cc1c(C(=O)NC2CCN(C)C2)sc2ncnc(Nc3ccc(F)cc3OC3CCOCC3)c12` (stereo not shown) [Example 177]: the pIC50 is 7.17.

In the case of `Cc1c(C(=O)NC2CCN(C)CC2)sc2ncnc(Nc3cccnc3OC3CCOCC3)c12` [Example 281], the pIC50 was 7.38.

As to `Cc1c(C(=O)NCCC(N)=O)sc2ncnc(Nc3ccc(F)cc3OC3CCOCC3)c12` [Example 165], the pIC50 is 7.41.

Take `Cc1c(C(N)=O)sc2ncnc(Nc3ccc(F)cc3OC3CCN(S(C)(=O)=O)C3)c12` (stereo not shown) [Example 89, 4-[4-Fluoro-2-(1-methanesulfonyl-pyrrolidin-3-yloxy)-phenylamino]-5-methyl-thieno[2,3-d]pyrimidine-6-carboxylic acid amide]: the pIC50 was 8.10.

As for `Cc1c(C(=O)NCC(=O)c2ccccc2)sc2ncnc(Nc3ccc(F)cc3OC3CCCNC3)c12` (stereo not shown) [Example 42], the pIC50 is 7.39.

Consider `Cc1c(C(N)=O)sc2ncnc(Nc3ccc(F)cc3O[C@H]3C[C@@H](CO)N(S(C)(=O)=O)C3)c12` [Example 113, 4-[4-Fluoro-2-((3S,5S)-5-hydroxymethyl-1-methanesulfonyl-pyrrolidin-3-yloxy)-phenylamino]-5-methyl-thieno[2,3-d]pyrimidine-6-carboxylic acid amide], for which the pIC50 was 6.38.

Turning to `Cc1c(C(=O)NCCCN(C)C)sc2ncnc(Nc3cccnc3O[C@H]3CCOC3)c12` [Example 270, 5-Methyl-4-{2-[(S)-(tetrahydro-furan-3-yl)oxy]-pyridin-3-ylamino}-thieno[2,3-d]pyrimidine-6-carboxylic acid (3-dimethylamino-propyl)-amide], the pIC50 is 6.53.

For `Cc1c(C(=O)NCc2cccc3ccccc23)sc2ncnc(Nc3ccc(F)cc3OC3CCCNC3)c12` (stereo not shown) [Example 60], the pIC50 is 7.19.

Regarding `Cc1c(C(=O)NCCCC2CCOC2)sc2ncnc(Nc3ccc(F)cc3OC3CCCNC3)c12` (stereo not shown) [Example 39], the pIC50 is 7.24.

With `Cc1c(C(=O)NCC(C)(C)Cl)sc2ncnc(Nc3ccc(F)cc3OC3CCCNC3)c12` (stereo not shown) [Example 48], the pIC50 is 7.12.

As to `CC(=O)NCCCNC(=O)c1sc2ncnc(Nc3ccc(F)cc3OC3CCOCC3)c2c1C` [Example 130], the negative logarithm of the IC50 (pIC50) is 7.44.

With `Cc1c(C(=O)NCc2ccc(O)cc2)sc2ncnc(Nc3ccc(F)cc3OC3CCCNC3)c12` (stereo not shown) [Example 34], the pIC50 was 7.46.

Turning to `Cc1c(C(N)=O)sc2ncnc(Nc3ccc(F)cc3O[C@@H]3CCCN(CCO)C3)c12` [Example 80], the pIC50 is 7.70.

`Cc1c(C(=O)NCc2cccnc2)sc2ncnc(Nc3ccc(F)cc3OC3CCOCC3)c12` [Example 213]: the pIC50 is 7.68.

`Cc1c(C(=O)NCC2CN(C)CCO2)sc2ncnc(Nc3ccc(F)cc3OC3CCOCC3)c12` (stereo not shown) [Example 116, 4-[4-Fluoro-2-(tetrahydro-pyran-4-yloxy)-phenylamino]-5-methyl-thieno[2,3-d]pyrimidine-6-carboxylic acid (4-methyl-morpholin-2-ylmethyl)-amide trifluoracetate]: the pIC50 was 7.66.

Take `Cc1c(C(=O)NCCOc2ccccc2)sc2ncnc(Nc3ccc(F)cc3OC3CCCNC3)c12` (stereo not shown) [Example 44]: the pIC50 was 7.19.

Regarding `Cc1c(C(=O)NCC2CNC(=O)C2)sc2ncnc(Nc3ccc(F)cc3OC3CCOCC3)c12` (stereo not shown) [Example 199], the pIC50 was 7.52.

`Cc1c(C(=O)NCC2CN(C)CCO2)sc2ncnc(Nc3ccc(F)cc3OC3CCCNC3)c12` (stereo not shown) [Example 55]: the pIC50 was 7.29.

Consider `Cc1c(C(=O)NCCOC(C)C)sc2ncnc(Nc3ccc(F)cc3OC3CCOCC3)c12` [Example 232], for which the pIC50 was 7.35.

As to `Cc1c(C(=O)NC#N)sc2ncnc(Nc3ccc(F)cc3O[C@@H]3CCOC3)c12` [Example 100, (R)—N-cyano-4-(4-fluoro-2-(tetrahydrofuran-3-yloxy)phenylamino)-5-methylthieno[2,3-d]pyrimidine-6-carboxamide], the pIC50 was 8.30.

As to `CONC(=O)c1sc2ncnc(Nc3ccc(F)cc3O[C@@H]3CCOC3)c2c1C` [Example 102, 4-{4-Fluoro-2-[(R)-(tetrahydro-furan-3-yl)oxy]-phenylamino}-5-methyl-thieno[2,3-d]pyrimidine-6-carboxylic acid methoxy-amide], the pIC50 is 7.49.

For the compound `CONC(=O)c1sc2ncnc(Nc3ccc(F)cc3OC3CCN(S(C)(=O)=O)C3)c2c1C` (stereo not shown) [Example 92], the pIC50 was 7.35.

`Cc1c(C(=O)NC2CCCNCC2)sc2ncnc(Nc3ccc(F)cc3O[C@H]3CCOC3)c12` (stereo partly drawn) [Example 273, 4-{4-Fluoro-2-[(S)-(tetrahydro-furan-3-yl)oxy]-phenylamino}-5-methyl-thieno[2,3-d]pyrimidine-6-carboxylic acid azepan-4-ylamide trifluoroacetate]: the pIC50 was 7.31.

Source of the values: patent US8648068B2, “Heterocycloalkyl-containing thienopyrimidines for pharmaceutical compositions” (Boehringer Ingelheim International GmbH, priority 2010, dated 2014).
